Converted amounts (≈) assume the structure as drawn. Like-named read-outs stand apart in the source and are kept apart here. Marks after values point to notes of the source that are not given here.
Key:
[1] = tested on: V10 (Egypt) Acinetobacter lwoffii; experiment: MIC assay, CAMHB with alginate oligomer, no visible growth; format: cell-based; settings: Table 5, V10 MDR Acin. lwoff
V11 5702 (Wales) E. coli = experiment: as above; format: cell-based; settings: Table 5, V11 MDR E.coli
V22 6056 Acinetobacter = experiment: as above; format: cell-based, Acinetobacter lwoffii; settings: Table 5, V22 MDR Acin. lwoff
[2] = tested on: V23 1322 Burkholderia cepacia; experiment: as above; format: cell-based
[3] = tested on: strains of Klebsiella pneumoniae displaying MDR phenotypes; experiment: MIC-assay, Mueller-Hinton broth with G-block alginate, 384-well, OD600 (Table 10); format: cell-based; settings: read-out: MIC
Excerpt: Minimum inhibitory concentration (MICs) of different antibiotics for strains of Klebsiella pneumoniae displaying MDR phenotypes in the presence of varying concentrations of OligoCF-5/20 (0-10%). (MIC values are expressed in μg ml^−1).

[4] = tested on: Burkholderia cepacia (1322, V23); experiment: MIC-assay, Mueller-Hinton broth with G-block alginate, 384-well, OD600
[5] = tested on: Acinetobacter baumannii (Egypt, V9); experiment: as above
[6] = Klebsiella pneumoniae (5712, Wales, V12) MDR, G-block (OligoCF-5/20) 0%
[7] = Klebsiella pneumoniae (5712, Wales, V12) MDR, G-block (OligoCF-5/20) 2%
[8] = Klebsiella pneumoniae (5712, Wales, V12) MDR, G-block (OligoCF-5/20) 6%
[9] = Klebsiella pneumoniae (5712, Wales, V12) MDR, G-block (OligoCF-5/20) 10%
[10] = Klebsiella pneumoniae (IR25, India, V6) MDR, G-block (OligoCF-5/20) 0%
[11] = Klebsiella pneumoniae (IR25, India, V6) MDR, G-block (OligoCF-5/20) 2%
[12] = Klebsiella pneumoniae (IR25, India, V6) MDR, G-block (OligoCF-5/20) 6%
[13] = Klebsiella pneumoniae (IR25, India, V6) MDR, G-block (OligoCF-5/20) 10%
[14] = Klebsiella pneumoniae (K3, India, V8) MDR, G-block (OligoCF-5/20) 0%
[15] = Klebsiella pneumoniae (K3, India, V8) MDR, G-block (OligoCF-5/20) 2%
[16] = Klebsiella pneumoniae (K3, India, V8) MDR, G-block (OligoCF-5/20) 6%
[17] = Klebsiella pneumoniae (K3, India, V8) MDR, G-block (OligoCF-5/20) 10%
[18] = Table 8, G-block (OligoCF-5/20) 0%
[19] = Table 8, G-block (OligoCF-5/20) 2%
[20] = Table 8, G-block (OligoCF-5/20) 6%
[21] = Table 8, G-block (OligoCF-5/20) 10%
[22] = Table 9, G-block (OligoCF-5/20) 0%
[23] = Table 9, G-block (OligoCF-5/20) 2%
[24] = Table 9, G-block (OligoCF-5/20) 6%
[25] = Table 9, G-block (OligoCF-5/20) 10%

Compound `CN(C)[C@@H]1C(O)=C(C(N)=O)C(=O)[C@@]2(O)C(O)=C3C(=O)c4c(O)cccc4[C@@](C)(O)[C@H]3[C@H](O)[C@@H]12` [Oxytetracycline] has an MIC ([1]; Acinetobacter lwoffii, OligoCF-5/20 0G, read-out: MIC) of 0.5 µg/mL (≈ 1.09 µM), an MIC ([1]; OligoCF-5/20 +2% G) of 0.5 µg/mL (≈ 1.09 µM) and an MIC ([1]; OligoCF-5/20 +6% G) of 0.5 µg/mL (≈ 1.09 µM). The MIC ([1]; OligoCF-5/20 +10% G) was 0.25^† μg/ml, the MIC (V11 5702 (Wales) E. coli; Escherichia coli, OligoCF-5/20 0G, read-out: MIC) was 0.5 µg/mL (≈ 1.09 µM) and the MIC (V11 5702 (Wales) E. coli; OligoCF-5/20 +2% G) was 1^‡ μg/ml. For the same compound, the MIC (V11 5702 (Wales) E. coli; OligoCF-5/20 +6% G) was 0.5 µg/mL (≈ 1.09 µM), the MIC (V11 5702 (Wales) E. coli; OligoCF-5/20 +10% G) was 0.5 µg/mL (≈ 1.09 µM) and the MIC (V22 6056 Acinetobacter; Acinetobacter, OligoCF-5/20 0G, read-out: MIC) was 2 µg/mL (≈ 4.34 µM). For the same compound, the MIC (V22 6056 Acinetobacter; OligoCF-5/20 +2% G) was 2 µg/mL (≈ 4.34 µM), the MIC (V22 6056 Acinetobacter; OligoCF-5/20 +6% G) was 2 µg/mL (≈ 4.34 µM) and the MIC (V22 6056 Acinetobacter; OligoCF-5/20 +10% G) was 8^‡ μg/ml. For the same compound, the MIC ([2]; Burkholderia cepacia, Table 5, V23 MDR Burk cep, OligoCF-5/20 0G, read-out: MIC) was 256 µg/mL (≈ 556 µM), the MIC ([2]; Burkholderia cepacia, Table 6, V23, Experiment 1 (18-03-10), OligoCF-5/20 0G, read-out: MIC) was over 256 µg/mL and the MIC ([2]; Burkholderia cepacia, Table 6, V23, Experiment 2 (18-03-10), OligoCF-5/20 0G, read-out: MIC) was over 256 µg/mL. The MIC ([2]; Burkholderia cepacia, Table 6, V23, Experiment 3 (19-03-10), OligoCF-5/20 0G, read-out: MIC) was over 256 µg/mL, the MIC ([2]; Table 5, V23 MDR Burk cep, OligoCF-5/20 +2% G) was 128^† μg/ml and the MIC ([2]; Table 5, V23 MDR Burk cep, OligoCF-5/20 +6% G) was 128^† μg/ml. For the same compound, the MIC ([2]; Table 5, V23 MDR Burk cep, OligoCF-5/20 +10% G) was 32^† μg/ml, the MIC ([2]; Table 6, V23, Experiment 1 (18-03-10), OligoCF-5/20 +2% G) was 256^† μg/ml and the MIC ([2]; Table 6, V23, Experiment 1 (18-03-10), OligoCF-5/20 +6% G) was 256^† μg/ml. The MIC ([2]; Table 6, V23, Experiment 1 (18-03-10), OligoCF-5/20 +10% G) was 128^† μg/ml, the MIC ([2]; Table 6, V23, Experiment 2 (18-03-10), OligoCF-5/20 +2% G) was over 256 µg/mL and the MIC ([2]; Table 6, V23, Experiment 2 (18-03-10), OligoCF-5/20 +6% G) was 256^† μg/ml. The MIC ([2]; Table 6, V23, Experiment 2 (18-03-10), OligoCF-5/20 +10% G) was 128^† μg/ml, the MIC ([2]; Table 6, V23, Experiment 3 (19-03-10), OligoCF-5/20 +2% G) was 256^† μg/ml and the MIC ([2]; Table 6, V23, Experiment 3 (19-03-10), OligoCF-5/20 +6% G) was 256^† μg/ml. For the same compound, the MIC ([2]; Table 6, V23, Experiment 3 (19-03-10), OligoCF-5/20 +10% G) was 256^† μg/ml, the MIC [3, 6] was 1 µg/mL (≈ 2.17 µM) and the MIC [3, 7] was 1 µg/mL (≈ 2.17 µM). It also gave an MIC [3, 8] of 1 µg/mL (≈ 2.17 µM), an MIC [3, 9] of 1 µg/mL (≈ 2.17 µM) and an MIC [3, 10] of 2 µg/mL (≈ 4.34 µM). For the same compound, the MIC [3, 11] was 2 µg/mL (≈ 4.34 µM), the MIC [3, 12] was 2 µg/mL (≈ 4.34 µM) and the MIC [3, 13] was 2 µg/mL (≈ 4.34 µM). It also gave an MIC [3, 14] of 512 µg/mL (≈ 1110 µM), an MIC [3, 15] of 512 µg/mL (≈ 1110 µM) and an MIC [3, 16] of 512 µg/mL (≈ 1110 µM). For the same compound, the MIC [3, 17] was 1020 µg/mL (≈ 2220 µM), the MIC [4, 18] was 128 µg/mL (≈ 278 µM) and the MIC [4, 19] was 128 µg/mL (≈ 278 µM). For the same compound, the MIC [4, 20] was 64 µg/mL (≈ 139 µM), the MIC [4, 21] was 64 µg/mL (≈ 139 µM) and the MIC [5, 22] was 1 µg/mL (≈ 2.17 µM). It also gave an MIC [5, 23] of 0.5 µg/mL (≈ 1.09 µM), an MIC [5, 24] of 1 µg/mL (≈ 2.17 µM) and an MIC [5, 25] of 0.5 µg/mL (≈ 1.09 µM).

In the case of `CC[C@H]1OC(=O)[C@H](C)[C@@H](O[C@H]2C[C@@](C)(OC)[C@@H](O)[C@H](C)O2)[C@H](C)[C@@H](O[C@@H]2O[C@H](C)C[C@H](N(C)C)[C@H]2O)[C@](C)(O)C[C@@H](C)[C@@H]2N[C@@H](COCCOC)O[C@H]([C@H]2C)[C@]1(C)O` [Dirithromycin], the MIC [3, 6] is reported as 128 µg/mL (≈ 153 µM), the MIC [3, 7] is reported as 64 µg/mL (≈ 76.6 µM) and the MIC [3, 8] is reported as 64 µg/mL (≈ 76.6 µM). The MIC [3, 9] was 32 µg/mL (≈ 38.3 µM), the MIC [3, 10] was 1020 µg/mL (≈ 1230 µM) and the MIC [3, 11] was 1020 µg/mL (≈ 1230 µM). The MIC [3, 12] was 512 µg/mL (≈ 613 µM), the MIC [3, 13] was 256 µg/mL (≈ 307 µM) and the MIC [3, 14] was 256 µg/mL (≈ 307 µM). The MIC [3, 15] was 128 µg/mL (≈ 153 µM), the MIC [3, 16] was 128 µg/mL (≈ 153 µM) and the MIC [3, 17] was 128 µg/mL (≈ 153 µM). It also gave an MIC [4, 18] of 256 µg/mL (≈ 307 µM), an MIC [4, 19] of 256 µg/mL (≈ 307 µM) and an MIC [4, 20] of 128 µg/mL (≈ 153 µM). For the same compound, the MIC [4, 21] was 64 µg/mL (≈ 76.6 µM), the MIC [5, 22] was 4 µg/mL (≈ 4.79 µM) and the MIC [5, 23] was under 1 µg/mL. It also gave an MIC [5, 24] of under 1 µg/mL and an MIC [5, 25] of under 1 µg/mL.

`C[C@@H](O)[C@H]1C(=O)N2C(C(=O)O)=C(SCCN=CN)C[C@H]12` [Imipenem] was tested, and the MIC [3, 6] was under 2 µg/mL, the MIC [3, 7] was under 2 µg/mL and the MIC [3, 8] was under 2 µg/mL. For the same compound, the MIC [3, 9] was under 2 µg/mL, the MIC [3, 10] was under 2 µg/mL and the MIC [3, 11] was 2 µg/mL (≈ 6.68 µM). It also gave an MIC [3, 12] of 2 µg/mL (≈ 6.68 µM), an MIC [3, 13] of 2 µg/mL (≈ 6.68 µM) and an MIC [3, 14] of 8 µg/mL (≈ 26.7 µM). The MIC [3, 15] was 16 µg/mL (≈ 53.4 µM), the MIC [3, 16] was 16 µg/mL (≈ 53.4 µM) and the MIC [3, 17] was 8 µg/mL (≈ 26.7 µM). The MIC [4, 18] was over 16 µg/mL, the MIC [4, 19] was 16 µg/mL (≈ 53.4 µM) and the MIC [4, 20] was 16 µg/mL (≈ 53.4 µM). For the same compound, the MIC [4, 21] was 16 µg/mL (≈ 53.4 µM), the MIC [5, 22] was 2 µg/mL (≈ 6.68 µM) and the MIC [5, 23] was under 2 µg/mL. For the same compound, the MIC [5, 24] was 2 µg/mL (≈ 6.68 µM) and the MIC [5, 25] was under 2 µg/mL.

In the case of `CC[C@H]1OC(=O)[C@H](C)[C@@H](O[C@H]2C[C@@](C)(OC)[C@@H](O)[C@H](C)O2)[C@H](C)[C@@H](O[C@@H]2O[C@H](C)C[C@H](N(C)C)[C@H]2O)[C@](C)(O)C[C@@H](C)/C(=N\OCOCCOC)[C@H](C)[C@@H](O)[C@]1(C)O` [Roxithromycin], the MIC [3, 6] is reported as 256 µg/mL (≈ 306 µM), the MIC [3, 7] is reported as 512 µg/mL (≈ 612 µM) and the MIC [3, 8] is reported as 512 µg/mL (≈ 612 µM). For the same compound, the MIC [3, 9] was 512 µg/mL (≈ 612 µM), the MIC [3, 10] was 1020 µg/mL (≈ 1220 µM) and the MIC [3, 11] was over 1020 µg/mL. For the same compound, the MIC [3, 12] was 1020 µg/mL (≈ 1220 µM), the MIC [3, 13] was over 1020 µg/mL and the MIC [3, 14] was 512 µg/mL (≈ 612 µM). It also gave an MIC [3, 15] of 256 µg/mL (≈ 306 µM), an MIC [3, 16] of over 1020 µg/mL and an MIC [3, 17] of over 1020 µg/mL. The MIC [4, 18] was 512 µg/mL (≈ 612 µM), the MIC [4, 19] was 512 µg/mL (≈ 612 µM) and the MIC [4, 20] was 256 µg/mL (≈ 306 µM). It also gave an MIC [4, 21] of 64 µg/mL (≈ 76.5 µM), an MIC [5, 22] of 8 µg/mL (≈ 9.56 µM) and an MIC [5, 23] of 4 µg/mL (≈ 4.78 µM). The MIC [5, 24] was 4 µg/mL (≈ 4.78 µM) and the MIC [5, 25] was 2 µg/mL (≈ 2.39 µM).

Source: US9801901B2, “Alginate oligomers for use in overcoming multidrug resistance in bacteria” (priority 2009, dated 2017)
